Experiments:
[1] = system: Klebsiella pneumoniae; settings: cited from earlier work
[2] = system: cells; experiment: Cell death during cell wounding by washed MST, platform rocker exposure system; format: cell-based; settings: for cell death associated with MST-extract exposure during cell wounding: MST-extract containing 9.5 mM chelator, with washed MST, 30 minutes
Procedure: Cell death was measured immediately following treatment.
We then treated cells for 30 minutes with MST-extract/chelator preparations in the presence of washed MST using the platform exposure system and assessed cell death immediately following treatment.

[3] = for chelation of free calcium of MST-extract: 9.5 mM chelator in MST-extract
Procedure: The term “free” with regard to (1) calcium and (2) iron refers to (1) Ca^2+ and (2) Fe^2+ and/or Fe^3+, respectively. Determination of an amount of free iron and/or free calcium in smokeless tobacco can be made by first incubating the smokeless tobacco with any chelators that may be used for an appropriate amount of time (for example, one day), then separating extract by centrifugation with glass beads. […] Then, fifteen grams of Glass Beads (Kimble; 6 MM catalog # 13500-6) can be added to the Vectrospin™ tube containing the tobacco. The tube is preferably centrifuged at 2200 g for 20 minutes to recover tobacco extract. Free calcium and iron can be measured using the respective QuantiChrom™ assay kits (BioAssay Systems, Hayward, CA) according to the manufacturer’s instructions.

[4] = system: HOK-16B cells; experiment: Intracellular ROS generation (DCFH-DA fluorescence) after STE exposure; format: cell-based, human; settings: TROLOX 20 µmol/L, L-ascorbic acid 50 µmol/L or deferoxamine 50 µmol/L, 30 min prior to STE addition; FIG. 1C
Procedure: Extracts of smokeless tobacco were prepared in cell growth medium as follows. One gram of reference smokeless tobacco was mixed with 10 ml of cell growth medium and placed on a shaker at 300 rpm and allowed to mix for 2 hours at 37° C. It was then centrifuged at 125 g for 10 minites at 4° C. The extracted supernatant was collected and centrifuged at 14,000 g for 1 hour at 4° C. The supernatant was filtered using a 0.22 µm filter, divided into aliquots, and immediately stored at -80° C. The extracted supernatant yielded a 100 mg/ml smokeless tobacco extract (STE) solution, which was serially diluted to obtain the doses of STE (1-100 mg/ml) used. […]
The intracellular generation of reactive oxygen species (ROS) was measured by using membrane permeable oxidation-sensitive fluorescent dye DCFH-DA. […] Fluorescence measurements were obtained 0 to 3 hours after STE addition, at the indicated concentrations, with a plate reader. Thirty minutes before the measurement of ROS in the plate reader, cells were incubated with DCFH-DA (25 µmol/L) or DMSO vehicle. The medium was then rapidly removed, the cells were washed in ice-cold phosphate-buffered saline and replaced with medium lacking dye, and the plate was placed into the plate reader. Data at each time point are presented corrected for basal fluorescence of vehicle-treated cells at the same time point. […]

[5] = system: HOK-16B cells; experiment: Morphologic assessment of necrotic/apoptotic cell death (Hema 3 staining); format: cell-based, human; settings: for protection from STE-induced cell death: TROLOX 20 µmol/L, L-ascorbic acid 50 µmol/L or deferoxamine 50 µmol/L, 30 min prior to STE, FIG. 1D
Procedure: Extracts of smokeless tobacco were prepared in cell growth medium as follows. One gram of reference smokeless tobacco was mixed with 10 ml of cell growth medium and placed on a shaker at 300 rpm and allowed to mix for 2 hours at 37° C. It was then centrifuged at 125 g for 10 minites at 4° C. The extracted supernatant was collected and centrifuged at 14,000 g for 1 hour at 4° C. The supernatant was filtered using a 0.22 µm filter, divided into aliquots, and immediately stored at -80° C. The extracted supernatant yielded a 100 mg/ml smokeless tobacco extract (STE) solution, which was serially diluted to obtain the doses of STE (1-100 mg/ml) used.
The primary HOK cells, isolated from human oral mucosa, were plated on poly-L-lysine coated plates at a density of 5 × 10^5 cells/well in a 12-well plate and cultured in keratinocyte medium at 37° C. in a humidified atmosphere containing 5% CO2 (v/v). HOK-16B cells were plated at a density of 5 × 10^5 cells/well in a 12-well plate and cultured in keratinocyte growth medium supplemented with 0.1 ng/ml epidermal growth factor, 5 µg/ml insulin, 30 µg/mlgentamicin, and 50 µg/mlamphoterecin at 37° C. in a humidified atmosphere containing 5% CO2 (v/v). The Het-1A cells were attached to plates pre-coated with LHC-9 medium supplemented with 0.01 mg/ml fibronectin, 0.03 mg/ml bovine collagen type I and 0.01 mg/ml bovine serum albumin for 1 hour, at a density of 5 × 10^5 cells/well in a 12-well plate and cultured in LHC-9 medium at 37° C. in a humidified atmosphere containing 5% CO2 (v/v). Unless otherwise indicated, cells were exposed to STE at 24 hours after plating.
Cells were treated with TROLOX (6-hydroxy-2,5,7,8-tetramethylchroman-2-carboxylic acid, a water-soluble derivative of vitamin E) at 20 µmol/L, L-ascorbic acid (50 µmol/L), or deferoxamine (50 µmol/L) 30 min prior to STE addition. Treatment was from a 10 mM stock solution of each agent, and the maximal concentration of vehicle [dimethyl sulfoxide (DMSO)] in culture medium was 0.01% (v/v). When possible, agents were diluted in appropriate cell culture medium (TROLOX, L-ascorbic acid, deferoxamine). Exposure to STE is expressed in terms of the amount of reference MST used to produce the total volume of STE [i.e., 100 mg/ml (w/v)]. The indicated concentrations of STE (1-100 mg/ml) exposure were chosen for these studies because they are within the reference range of previously cited works involving smokeless tobacco exposure (Bagchi et al., “Smokeless tobacco, oxidative stress, apoptosis, and antioxidants in human oral keratinocytes.: Free Radic. Biol. Med. 26, 992-1000 (1999); Mangipudy et al., “Role of nitric oxide in the induction of apoptosis by smokeless tobacco extract.” Mol Cell Biochem. 200, 51-57 (1999); and Petro, “Modulation of IL-12 p35 and p40 promoter activity by smokeless tobacco extract is associated with an effect upon activation of NF-kappaB but not IRF transcription factors.” Int. Immunopharmacol.
Morphologic assessment of viable cells and apoptotic and necrotic cell death was performed as follows. Cells were harvested 3 hours after STE exposure, unless otherwise noted, by treatment with trypsin-EDTA for approximately 5 minutes at 37° C. As some apoptotic cells detached from the culture substratum into the medium, these cells were also collected by centrifugation of the medium at 125 g for 5 minutes. […] Nuclear and total cellular morphology were evaluated. […]

SMILES	capsule production of Klebsiella pneumoniae [1]	cell death associated with MST-extract exposure during cell wounding [2]	chelation of free calcium of MST-extract [3]	production of ROS induced by STE [4]	protection from STE-induced cell death [5]	other results
O=C(O)CN(CCOCCOCCN(CC(=O)O)CC(=O)O)CC(=O)O [EGTA, ethylene glycol tetraacetic acid]	reduced capsule production	reduced cell death	nearly all			cell death with chelator-treated high Ca2+ medium in combination with washed MST ([2]; free calcium reduced to less than 2 mM): significantly reduced degree of cell death; free calcium levels in the high Ca2+ medium after chelator addition ([3]; 13.5 mM Ca2+ medium): less than 2 mM
Cc1c(C)c2c(c(C)c1O)CCC(C)(C(=O)O)O2 (stereo not drawn) [TROLOX, 6-hydroxy-2,5,7,8-tetramethylchroman-2-carboxylic acid]				completely suppressed	can protect against cell death	
[Cl][Fe]([Cl])[Cl] [FeCl3]						percent necrotic cell death after 3 hours ([5]; free iron 14 pM in cell culture medium without STE, 0 pM gave 4.9 ± 0.6%): 13.4 ± 1.0%; percent necrotic cell death after 3 hours ([5]; free iron 31 pM in cell culture medium without STE): 26.2 ± 3.5%; percent necrotic cell death after 3 hours ([5]; free iron 71 pM in cell culture medium without STE): 37.9 ± 4.5%
O=C1O[C@H]([C@@H](O)CO)C(O)=C1O [L-ascorbic acid]				completely suppressed	can protect against cell death	
O=C(O)CN(CCN(CC(=O)O)CC(=O)O)CC(=O)O [EDTA, ethylenediamine tetraacetic acid]	reduced capsule production	reduced cell death	nearly all			

— patent US11766068B1, “Method of treating smokeless tobacco” (Altria Client Services LLC, priority 2009, dated 2023)
